Like-named read-outs stand apart in the source and are kept apart here. Where a SMILES comes first, the peptide text is derived from it. Where no end group is shown, it is not given here. [ ]: non-standard residue; d: D form. The star is where a group is joined. Stearoyl = CCCCCCCCCCCCCCCCCC(=O)*
What was measured:
[1] = Bleeding time test (BT) in rats; format: in vivo, rat; conditions: 30 min after administration
Description: Bleeding time was determined as reported previously. Male SD rats (180–220 g) were divided into 6 groups (n = 8). […] Thirty minutes after the injection, bleeding was induced by tail transection of the anesthetized rat with a size 21 disposable scalpel blade 2 mm from the tail tip. The bleeding tail was wiped with filter paper every 30 s, and the bleeding time was recorded when no blood was observed on the filter paper.

[2] = Pharmacokinetics in rats, i.v.; format: in vivo; conditions: rat, 1 μmol/kg i.v., n = 5; for AUC(0-t): read-out: AUC(0-t) (converted); for MRT last: read-out: MRT0-t (converted); for Vd: read-out: Vss
Description: SD Rats were randomly divided into three groups (n = 5). […] All blood samples were immediately centrifuged at 5000 rpm for 5 min at room temperature, and the plasma obtained was stored at −20 °C before analysis. To the rat plasma (100 μL) was added 10 μL internal standard (80 ~ 100 ng/ml Carbamazepine), followed by mixing with 200 μL methanol with vortexing for 1 min. At this stage, certain amounts of proteins may precipitate out, thus this mixture was centrifuged at 12,000 rpm for 5 min at room temperature to achieve complete separation. The 20 μl supernatant was injected into a HPLC (Symbiosis, Spark, Holland; column: 50 mm × 2.1 mm, 5 μm, Agilent Eclipse Plus) –MS/MS system (ABI 4000 Q-Trap triple quadrupole mass spectrometer) equipped with electrospray ionization (ESI) source in the positive ion mode (Foster City, USA). The HPLC elution gradient was as follows: 0–0.5 min, 5–5% (B); 0.5–3 min, 5–95% (B); 3–4 min, 95–95% (B); 4–4.06 min, 95–5% (B); 4.06–6 min, 5–5% (B); the flow-rate was 0.4 ml/min; A was 0.1% formic acid/Waterl, B was 0.1% formic acid/methanol. The MS parameters were: CUR10Psi; Ion Spray Voltage (IS) 5500v; Collision activated dissociation (CAD) High, Gas1 = 50 psi, Gas2 = 50 psi, TEM = 500 °C.
All three peptides remained stable in plasma during three freeze/thaw cycles, at room temperature for at least 2 h. The supernatant of plasma samples were also found to be stable for at least 24 h at 10 °C in the autosampler.
The statistical significance of the difference among pharmacokinetic parameters was determined using the mean comparison Student’s t-test, and the resulting P values were lower than 0.05, which is considered to be statistically significant.

[3] = biological target: T1, trypsin (Bos taurus, UniProt P00760); experiment: Degradation mediated by trypsin (HPLC); format: in vitro ADME; conditions: trypsin (119 ng/μL) in Tris-HCl buffer, pH 8.5, 119 μg/ml trypsin, peptide 0.79 mM, 37 °C, read-out: peptide intact after incubation with trypsin
T1 construct: purchased Roche Corp (Indianapolis, USA)
T1 sequence (P00760 24-246): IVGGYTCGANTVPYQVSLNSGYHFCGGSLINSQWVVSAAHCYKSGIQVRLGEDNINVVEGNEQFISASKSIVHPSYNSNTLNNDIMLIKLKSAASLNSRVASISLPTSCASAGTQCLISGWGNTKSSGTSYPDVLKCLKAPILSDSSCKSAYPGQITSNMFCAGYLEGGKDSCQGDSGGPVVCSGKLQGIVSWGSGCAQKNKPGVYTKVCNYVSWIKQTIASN
Text: The degradation of peptides mediated by trypsin can be effectively monitored by HPLC analysis. […] The detector wavelength was set at 214 nm.

[4] = biological target: T2, human thrombin (Homo sapiens, UniProt P00734); experiment: Degradation mediated by human thrombin (HPLC); format: in vitro ADME; conditions: human thrombin (69 NIH/mL) in Tris-HCl buffer, pH 8, 69 NIH/ml human thrombin, peptide 0.41 mM, 37 °C, read-out: peptide remained after reaction with human thrombin
T2 construct: purchased National Institute for the Control of Pharmaceutical and Biological Products (Beijing, China)
Description: The catalytic cleavage of peptides mediated by thrombin was also examined using the same method. Specifically, a peptide solution (0.41 mM) was first incubated with thrombin (69 NIH/mL) in Tris-HCl buffer (70 mM Tris HCl, NaCl 50 mM, pH = 8.0) at 37 °C.

[5] = biological target: T3, rat thrombin (Rattus norvegicus, UniProt P18292); experiment: Inhibition of rat thrombin-catalyzed hydrolysis of Chromozym TH; format: biochemical; conditions: 25 °C, pH 7.4
T3 construct: purchased Sigma

[6] = tested on: human thrombin; experiment: thrombin (69 NIH/mL) in Tris-HCl buffer (70 mM Tris HCl, NaCl 50 mM, pH = 8.0); conditions: 37 °C, up to 5 h
[7] = tested on: Trypsin (modified sequencing grade); experiment: trypsin (119 ng/μL) in the Tris-HCl buffer (90 mM, pH = 8.5); conditions: 37 °C, up to 5 h
[8] = biological target: T2, human thrombin; experiment: Inhibition of human thrombin-catalyzed hydrolysis of Chromozym TH; format: biochemical; conditions: 25 °C, pH 7.4
Description: The inhibition constant (Ki) was determined as reported previously. A 0.05 mL of peptide solution (concentration 10, 25, 50, 100, 150, 500 and 1000 nM, respectively) was added to 0.4 mL mixture of Hepes buffer (10 mM Hepes, 10 mM Tris, 0.1 M NaCl, 0.1% PEG 6000, pH 7.4) and bovine or human thrombin (0.25 NIH). The resulting solution was incubated at 25 °C for 2 min, followed by the addition of 0.05 mL Chromozym TH (concentration 25, 33, 40, 50, 100, 125, 200, 330, 500, and […], respectively). The absorbance at 405 nm was measured using a Beckman DU640 spectrometer. The inhibition constant (Ki) was determined using the following equation (Eq.1) originally developed for competitive inhibition processes[25]:
Herein, S is the initial substrate concentration; I is the inhibitor concentration; v is the initial steady-state velocity; Vmax is the limiting maximal velocity; and Km is the dissociation constant of the complex.

heparin [reference compound]
bleeding time (BT) ([1]; 200 IU/kg): 401 ± 83.23 s

CC[C@H](C)[C@H](NC(=O)[C@@H]1CCCN1C(=O)[C@H](CCC(=O)O)NC(=O)[C@H](Cc1ccccc1)NC(=O)[C@H](CC(=O)O)NC(=O)CNC(=O)[C@H](CCC(N)=O)NC(=O)CNC(=O)CNC(=O)CNC(=O)CNC(=O)[C@@H]1CCCN1C(=O)[C@H](CCCNC(=N)N)NC(=O)[C@@H]1CCCN1C(=O)[C@H](N)Cc1ccccc1)C(=O)N1CCC[C@H]1C(=O)N[C@@H](CCC(=O)O)C(=O)N[C@@H](CC(=O)O)C(=O)N[C@@H](C)C(=O)N[C@@H](Cc1ccc(O)cc1)C(=O)N[C@@H](CC(=O)O)C(=O)N[C@@H](CCC(=O)O)C(N)=O [Peptide 1] (H-[dF]PRPGGGGQGDFEPIPEDAYDE-NH2)
AUC(0-inf) ([2]; SD, plasma, iv, 1 umol/kg): 0.432 µM·h
AUC(0-t) ([2]; SD, plasma, iv, 1 umol/kg): 0.428 µM·h
Cmax ([2]; in vivo, iv, 1 umol/kg): 2300 ± 400 nM
clearance ([2]; in vivo, iv, 1 umol/kg): 36.4 ± 3.6 mL/min/kg
MRT last ([2]; in vivo, iv, 1 umol/kg): 13.9 min
Vd ([2]; in vivo, iv, 1 umol/kg): 0.504 ± 0.0217 L/kg
T1/2 [2]: 13.5 ± 2.6 min
half-life ([2]; in vivo, iv, 1 umol/kg): < 16 min
remaining at 3 h, 0.79 mM [3]: 5%
remaining at 5 h, 0.79 mM [3]: 1%
remaining at 3 h, 0.41 mM [4]: 70%
remaining at 5 h, 0.41 mM [4]: 46%
Ki [5]: 13.4 ± 0.46 nM

D-FPRP-GGGG-QGDFEPIPEDAYDE^*
cleaved bond [6]: Arg-Pro
cleaved bond [7]: Arg-Pro

CCCCCCCCCCCCCCCCCC(=O)NCCCC[C@H](NC(=O)CNC(=O)CNC(=O)CNC(=O)[C@@H]1CCCN1C(=O)[C@H](CCCNC(=N)N)NC(=O)[C@@H]1CCCN1C(=O)[C@H](N)Cc1ccccc1)C(=O)N[C@@H](CCC(N)=O)C(=O)NCC(=O)N[C@@H](CC(=O)O)C(=O)N[C@@H](Cc1ccccc1)C(=O)N[C@@H](CCC(=O)O)C(=O)N1CCC[C@H]1C(=O)N[C@H](C(=O)N1CCC[C@H]1C(=O)N[C@@H](CCC(=O)O)C(=O)N[C@@H](CC(=O)O)C(=O)N[C@@H](C)C(=O)N[C@@H](Cc1ccc(O)cc1)C(=O)N[C@@H](CC(=O)O)C(=O)N[C@@H](CCC(=O)O)C(N)=O)[C@@H](C)CC [Peptide S3] (H-[dF]PRPGGGK(Stearoyl)QGDFEPIPEDAYDE-NH2; N-terminus assumed)
Ki [8]: 11 ± 0.15 nM
Ki [5]: 54.5 ± 0.82 nM

D-FPRP-GGGG-QGDFEEIPEEYL
cleaved bond [6]: Arg-Pro
cleaved bond [7]: Arg-Pro

D-FPRP-GK(stearic acid)GG-QGDFEPIPEDAYDE^* ([dF]PRPGK(Stearoyl)GGQGDFEPIPEDAYDE-NH2)
cleaved bond [6]: Arg-Pro
cleaved bond [7]: Arg-Pro

CCCCCCCCCCCCCCCCCC(=O)NCCCC[C@H](NC(=O)[C@@H]1CCCN1C(=O)[C@H](CCCNC(=N)N)NC(=O)[C@@H]1CCCN1C(=O)[C@H](N)Cc1ccccc1)C(=O)NCC(=O)NCC(=O)NCC(=O)N[C@@H](CCC(N)=O)C(=O)NCC(=O)N[C@@H](CC(=O)O)C(=O)N[C@@H](Cc1ccccc1)C(=O)N[C@@H](CCC(=O)O)C(=O)N1CCC[C@H]1C(=O)N[C@H](C(=O)N1CCC[C@H]1C(=O)N[C@@H](CCC(=O)O)C(=O)N[C@@H](CC(=O)O)C(=O)N[C@@H](C)C(=O)N[C@@H](Cc1ccc(O)cc1)C(=O)N[C@@H](CC(=O)O)C(=O)N[C@@H](CCC(=O)O)C(N)=O)[C@@H](C)CC [Peptide S1] (H-[dF]PRPK(Stearoyl)GGGQGDFEPIPEDAYDE-NH2; N-terminus assumed)
Ki [8]: 19.5 ± 0.4 nM
Ki [5]: 37.4 ± 1.16 nM

CC[C@H](C)[C@H](NC(=O)[C@H](CCC(=O)O)NC(=O)[C@H](CCC(=O)O)NC(=O)[C@H](Cc1ccccc1)NC(=O)[C@H](CC(=O)O)NC(=O)CNC(=O)[C@H](CC(N)=O)NC(=O)CNC(=O)CNC(=O)CNC(=O)CNC(=O)[C@@H]1CCCN1C(=O)[C@H](CCCNC(=N)N)NC(=O)[C@@H]1CCCN1C(=O)[C@H](N)Cc1ccccc1)C(=O)N1CCC[C@H]1C(=O)N[C@@H](CCC(=O)O)C(=O)N[C@@H](CCC(=O)O)C(=O)N[C@@H](Cc1ccc(O)cc1)C(=O)N[C@@H](CC(C)C)C(=O)O [Hirulog-1, reference compound]
AUC(0-inf) ([2]; SD, plasma, iv, 1 umol/kg): 0.415 µM·h
Cmax ([2]; SD, plasma, iv, 1 umol/kg): 3100 ± 1100 nM
clearance ([2]; SD, plasma, iv, 1 umol/kg): 42.6 ± 5.2 mL/min/kg
AUC(0-t) ([2]; SD, plasma, iv, 1 umol/kg): 0.395 µM·h
MRT last ([2]; SD, plasma, iv, 1 umol/kg): 12.1 min
Vd ([2]; SD, plasma, iv, 1 umol/kg): 0.522 ± 0.151 L/kg
bleeding time (BT) ([1]; 8 mg/kg): 525.00 ± 48.11 s
remaining at 3 h, 0.79 mM [3]: 10%
remaining at 5 h, 0.79 mM [3]: 6%
remaining at 3 h, 0.41 mM [4]: 57%
remaining at 5 h, 0.41 mM [4]: 23%
Ki [5]: 20.5 ± 0.62 nM

From paper PMC4585835 (Scientific Reports, 2015)
